Reference: patent US20230391760A1, “HETEROCYCLIC GLP-1 AGONISTS” (Gasherbrum Bio, Inc., priority 2020, published 2023)

Molecular target: GLP-1 Receptor (Homo sapiens, UniProt P43220)
Assay: GLP-1R agonist cAMP stimulation assay (HEK293/GLP1R/CRE-LUC cells, cAMP dynamic 2 Kit)
Type: cell-based
Settings: HEK293/CRE-Luc cell line stably expressing the GLP-1 Receptor, 30 min at 37° C.
How it was run: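 cAMP measured by HTRF competition (d2-labelled cAMP with cryptate antibody, 1 h, room temperature, protected from light). Before that, GLP1R/CRE-Luc HEK293 cells (1000/well) were exposed for 30 min at 37 °C to half-log compound dilutions in DPBS containing IBMX 0.5 mM and BSA 0.1%.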

Chain of GLP-1 Receptor (P43220 24-463, species assumed): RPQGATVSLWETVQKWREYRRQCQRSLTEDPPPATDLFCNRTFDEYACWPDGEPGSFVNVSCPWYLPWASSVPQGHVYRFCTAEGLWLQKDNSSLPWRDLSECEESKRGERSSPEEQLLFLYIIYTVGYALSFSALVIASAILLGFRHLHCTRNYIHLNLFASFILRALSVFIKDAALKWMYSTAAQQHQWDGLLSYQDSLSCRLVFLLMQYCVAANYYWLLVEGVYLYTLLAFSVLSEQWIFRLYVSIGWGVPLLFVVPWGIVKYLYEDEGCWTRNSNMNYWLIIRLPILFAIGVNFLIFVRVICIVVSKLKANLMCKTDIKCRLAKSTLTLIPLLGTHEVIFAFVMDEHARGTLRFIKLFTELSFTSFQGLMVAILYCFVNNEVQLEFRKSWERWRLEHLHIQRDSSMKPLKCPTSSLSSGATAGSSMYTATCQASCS

Row | SMILES | EC50 [nM]
1 | Cc1ncccc1C(=O)Nc1ccc2c(c1)nc(CN1CCC(c3cccc(OCc4ccc(Cl)cc4F)n3)CC1)n2C[C@@H]1CCO1 [Compound 188a, N-{2-[(4-{6-[(4-chloro-2-fluorophenyl)methoxy]pyridin-2-yl}piperidin-1-yl)methyl]-1-{[(2S)-oxetan-2-yl]methyl}-1H-1,3-benzodiazol-5-yl}-2-methylpyridine-3-carboxamide] | 0.043
2 | Fc1cc(Cl)ccc1COc1cccc(N2CCN(Cc3nc4cc(-c5nnc(C(F)(F)F)[nH]5)cnc4n3C[C@@H]3CCO3)CC2)n1 [Compound 494a, 1-{6-[(4-chloro-2-fluorophenyl)methoxy]pyridin-2-yl}-4-[(3-{[(2S)-oxetan-2-yl]methyl}-6-[5-(trifluoromethyl)-4H-1,2,4-triazol-3-yl]-3H-imidazo[4,5-b]pyridin-2-yl)methyl]piperazine] | 0.013
3 | Fc1cc(Cl)ccc1COc1ncc(F)c(C2=CCC(Cc3nc4cc(-c5nnn[nH]5)ccc4n3C[C@@H]3CCO3)CC2)n1 (stereo partly drawn) [Compound 241a, 2-((4-(2-((4-chloro-2-fluorobenzyl)oxy)-5-fluoropyrimidin-4-yl)cyclohex-3-en-1-yl)methyl)-1-(((S)-oxetan-2-yl)methyl)-5-(1H-tetrazol-5-yl)-1H-benzo[d]imidazole] | 0.32
4 | CC1(c2ccc(C#N)cc2F)Oc2cccc(C3CCN(Cc4nc5cc(-c6nnc(C7CC7)[nH]6)ccc5n4C[C@@H]4CCO4)CC3)c2O1 (stereo partly drawn) [Compound 277a, 4-[4-(1-{[5-(5-cyclopropyl-4H-1,2,4-triazol-3-yl)-1-{[(2S)-oxetan-2-yl]methyl}-1H-1,3-benzodiazol-2-yl]methyl}piperidin-4-yl)-2-methyl-2H-1,3-benzodioxol-2-yl]-3-fluorobenzonitrile] | 0.15
5 | CC1(c2ccc(C#N)cc2F)Oc2cccc(C3CCN(Cc4nc5cc(-c6nnc(C(F)(F)F)[nH]6)cnc5n4C[C@@H]4CCO4)CC3)c2O1 (stereo partly drawn) [Compound 403a, 3-fluoro-4-(2-methyl-4-{1-[(3-{[(2S)-oxetan-2-yl]methyl}-6-[5-(trifluoromethyl)-4H-1,2,4-triazol-3-yl]-3H-imidazo[4,5-b]pyridin-2-yl)methyl]piperidin-4-yl}-2H-1,3-benzodioxol-2-yl)benzonitrile] | 0.02
6 | CC(C(=O)Nc1ccc2c(c1)nc(CN1CCC(c3cccc(OCc4ccc(Cl)cc4F)n3)CC1)n2C[C@@H]1CCO1)c1cnn(C)c1 (stereo partly drawn) [Compound 182a, N-{2-[(4-{6-[(4-chloro-2-fluorophenyl)methoxy]pyridin-2-yl}piperidin-1-yl)methyl]-1-{[(2S)-oxetan-2-yl]methyl}-1H-1,3-benzodiazol-5-yl}-2-(1-methyl-1H-pyrazol-4-yl)propanamide] | 2.5
7 | O=c1[nH]c(-c2cc3nc(CN4CCC(c5cccc(OCc6ccc(Cl)cc6F)n5)CC4)n(C[C@@H]4CCO4)c3cn2)no1 [Compound 316a, 3-{2-[(4-{6-[(4-chloro-2-fluorophenyl)methoxy]pyridin-2-yl}piperidin-1-yl)methyl]-3-{[(2S)-oxetan-2-yl]methyl}-3H-imidazo[4,5-c]pyridin-6-yl}-4,5-dihydro-1,2,4-oxadiazol-5-one] | 0.037
8 | CC1(c2ccc(Cl)cc2)Oc2cccc(C3=CCN(Cc4nc5cc(-c6nnc(C(F)(F)F)[nH]6)ccc5n4C[C@@H]4CCO4)CC3)c2O1 (stereo partly drawn) [Compound 255a, 2-({4-[2-(4-chlorophenyl)-2-methyl-2H-1,3-benzodioxol-4-yl]-1,2,3,6-tetrahydropyridin-1-yl}methyl)-1-{[(2S)-oxetan-2-yl]methyl}-5-[5-(trifluoromethyl)-4H-1,2,4-triazol-3-yl]-1H-1,3-benzodiazole] | 0.24
9 | C[C@]1(c2ccc(Cl)cn2)Oc2cccc(C3CCN(Cc4nc5cc(-c6nnc(C(F)(F)F)[nH]6)nnc5n4C[C@@H]4CCO4)CC3)c2O1 [Compound 462a, 5-chloro-2-[(2S)-2-methyl-4-{1-[(7-{[(2S)-oxetan-2-yl]methyl}-3-[5-(trifluoromethyl)-4H-1,2,4-triazol-3-yl]-7H-imidazo[4,5-c]pyridazin-6-yl)methyl]piperidin-4-yl}-2H-1,3-benzodioxol-2-yl]pyridine] | 0.045
10 | CC1(c2ccc(Cl)cc2F)Oc2cccc(C3CCN(Cc4nc5cc(-c6nnc(C(F)(F)F)[nH]6)ccc5n4C[C@@H]4CCO4)CC3)c2O1 (mixture of isomers) [Compound 229a, 2-({4-[2-(4-chloro-2-fluorophenyl)-2-methyl-2H-1,3-benzodioxol-4-yl]piperidin-1-yl}methyl)-1-{[(2S)-oxetan-2-yl]methyl}-5-[5-(trifluoromethyl)-4H-1,2,4-triazol-3-yl]-1H-1,3-benzodiazole] | 0.046
11 | Fc1cc(Cl)ccc1COc1cc(C2=CCN(Cc3nc4cc(-c5nnc(C(F)(F)F)[nH]5)cnc4n3C[C@@H]3CCO3)CC2)ccc1F [Compound 294a, 4-{3-[(4-chloro-2-fluorophenyl)methoxy]-4-fluorophenyl}-1-[(3-{[(2S)-oxetan-2-yl]methyl}-6-[5-(trifluoromethyl)-4H-1,2,4-triazol-3-yl]-3H-imidazo[4,5-b]pyridin-2-yl)methyl]-1,2,3,6-tetrahydropyridine] | 0.47
12 | CO[C@H](C)Cn1c(CN2CCC(c3cccc4c3O[C@@](C)(c3ccc(Cl)cc3F)O4)CC2)nc2cc(-c3nnc(C(F)(F)F)[nH]3)nnc21 [Compound 452a, 4-[(2S)-2-(4-chloro-2-fluorophenyl)-2-methyl-2H-1,3-benzodioxol-4-yl]-1-({7-[(2R)-2-methoxypropyl]-3-[5-(trifluoromethyl)-4H-1,2,4-triazol-3-yl]-7H-imidazo[4,5-c]pyridazin-6-yl}methyl)piperidine] | 0.14
13 | CS(=O)(=O)Nc1ccc2c(c1)nc(CN1CCC(c3cccc(OCc4ccc(Cl)cc4F)n3)CC1)n2C[C@@H]1CCO1 [Compound 108a, (S)—N-(2-((4-(6-((4-chloro-2-fluorobenzyl)oxy)pyridin-2-yl)piperidin-1-yl)methyl)-1-(oxetan-2-ylmethyl)-1H-benzo[d]imidazol-5-yl)methanesulfonamide] | 155
14 | Cc1cnccc1C(=O)Nc1ccc2c(c1)nc(CN1CCC(c3cccc(OCc4ccc(Cl)cc4F)n3)CC1)n2C[C@@H]1CCO1 [Compound 178a, N-{2-[(4-{6-[(4-chloro-2-fluorophenyl)methoxy]pyridin-2-yl}piperidin-1-yl)methyl]-1-{[(2S)-oxetan-2-yl]methyl}-1H-1,3-benzodiazol-5-yl}-3-methylpyridine-4-carboxamide] | 0.57
15 | CC1(c2ccc(Cl)cc2)Oc2cccc(C3CCN(Cc4nc5cc(-c6noc(=O)[nH]6)cnc5n4C[C@@H]4CCO4)CC3)c2O1 (stereo partly drawn) [Compound 330a, 3-[2-({4-[2-(4-chlorophenyl)-2-methyl-2H-1,3-benzodioxol-4-yl]piperidin-1-yl}methyl)-3-{[(2S)-oxetan-2-yl]methyl}-3H-imidazo[4,5-b]pyridin-6-yl]-4,5-dihydro-1,2,4-oxadiazol-5-one] | 0.97
16 | CC1(c2ccc(Cl)cc2F)Oc2cccc(C3CCN(Cc4nc5cc(-c6nnn[nH]6)ccc5n4C[C@@H]4CCO4)CC3)c2O1 (stereo partly drawn) [Compound 232a, 2-((4-(2-(4-chloro-2-fluorophenyl)-2-methylbenzo[d][1,3]dioxol-4-yl)piperidin-1-yl)methyl)-1-(((S)-oxetan-2-yl)methyl)-5-(1H-tetrazol-5-yl)-1H-benzo[d]imidazole] | 0.16
17 | CSc1nnc(-c2ccc3c(c2)nc(CN2CCC(c4cccc5c4OC(C)(c4ccc(Cl)cc4F)O5)CC2)n3C[C@@H]2CCO2)[nH]1 (stereo partly drawn) [Compound 252a, 2-({4-[2-(4-chloro-2-fluorophenyl)-2-methyl-2H-1,3-benzodioxol-4-yl]piperidin-1-yl}methyl)-5-[5-(methylsulfanyl)-4H-1,2,4-triazol-3-yl]-1-{[(2S)-oxetan-2-yl]methyl}-1H-1,3-benzodiazole] | 0.066
18 | O=C(Nc1ccc2c(c1)nc(CN1CCC(c3cccc(OCc4ccc(Cl)cc4F)n3)CC1)n2C[C@@H]1CCO1)c1ccc(F)cn1 [Compound 190a, N-{2-[(4-{6-[(4-chloro-2-fluorophenyl)methoxy]pyridin-2-yl}piperidin-1-yl)methyl]-1-{[(2S)-oxetan-2-yl]methyl}-1H-1,3-benzodiazol-5-yl}-5-fluoropyridine-2-carboxamide] | 1.2
19 | C[C@]1(c2ccc(Cl)cc2F)Oc2cccc(C3CCN(Cc4nc5cc(-c6noc(=O)[nH]6)cnc5n4C[C@@H]4CCOC4)CC3)c2O1 [Compound 398a, 3-[2-({4-[(2S)-2-(4-chloro-2-fluorophenyl)-2-methyl-2H-1,3-benzodioxol-4-yl]piperidin-1-yl}methyl)-3-{[(3S)-oxolan-3-yl]methyl}-3H-imidazo[4,5-b]pyridin-6-yl]-4,5-dihydro-1,2,4-oxadiazol-5-one] | 4.3
20 | CC1(c2ccc(C#N)cc2F)Oc2cccc(C3CCN(Cc4nc5cc(-c6noc(=O)[nH]6)cnc5n4C[C@@H]4CCO4)CC3)c2O1 (stereo partly drawn) [Compound 329a, 3-fluoro-4-(2-methyl-4-{1-[(3-{[(2S)-oxetan-2-yl]methyl}-6-(5-oxo-4,5-dihydro-1,2,4-oxadiazol-3-yl)-3H-imidazo[4,5-b]pyridin-2-yl)methyl]piperidin-4-yl}-2H-1,3-benzodioxol-2-yl)benzonitrile] | 0.25
21 | CO[C@H](C)Cn1c(CN2CCC(c3cccc4c3O[C@@](C)(c3ccc(Cl)cc3F)O4)CC2)nc2cc(-c3nnc(C(F)(F)F)[nH]3)ncc21 [Compound 418a, 4-[(2S)-2-(4-chloro-2-fluorophenyl)-2-methyl-2H-1,3-benzodioxol-4-yl]-1-({3-[(2R)-2-methoxypropyl]-6-[5-(trifluoromethyl)-4H-1,2,4-triazol-3-yl]-3H-imidazo[4,5-c]pyridin-2-yl}methyl)piperidine] | 0.095
22 | Cc1nc(-c2nnc(C(F)(F)F)[nH]2)cc2nc(CN3CCC(c4cccc5c4O[C@@](C)(c4ccc(Cl)cc4F)O5)CC3)n(C[C@@H]3CCO3)c12 [Compound 302a, 4-[(2S)-2-(4-chloro-2-fluorophenyl)-2-methyl-2H-1,3-benzodioxol-4-yl]-1-[(4-methyl-3-{[(2S)-oxetan-2-yl]methyl}-6-[5-(trifluoromethyl)-4H-1,2,4-triazol-3-yl]-3H-imidazo[4,5-c]pyridin-2-yl)methyl]piperidine] | 0.17
